Results taken from patent publication US10047087B2, “Substituted pyrazolo[1,5-A] pyridine as tropomyosin receptor kinase (TrK) inhibitors” (Dr. Reddy's Laboratories Ltd., priority 2011, dated 2018).

What follows are compounds tested against T1, TrkA kinase (Homo sapiens, UniProt P04629) (assay: In vitro TrkA inhibitory activity using TR-FRET assay). Conditions: 5 ng TrkA, 500 μM ATP, both bounds given in nm, read-out: TrkA inhibitory activity in-vitro IC50.
T1 construct: purchased Upstate, USA
Format: biochemical
Protocol: Determination of In Vitro TrkA Inhibitory Activity Using TR-FRET Assay
Compounds were screened in the TR-FRET assay with TrkA kinase. 5 ng of TrkA [Upstate, USA] kinase was used for assay. The compound was incubated with the kinase for 30 minutes at 20-35° C. After the incubation, substrate mix [40 nM Ultra light poly GT (Perkin Elmer, USA) and 500 μM ATP] was added. The above reaction was stopped by the addition of 40 mM EDTA after 30 minutes. The Eu-labelled antiphospho-tyrosine antibody [Perkin Elmer, USA] was added at 0.5 nM and the fluorescence emission at 615 nm/665 nm [excitation at 340 nm] was measured. The compounds were initially screened at 100 nM, 1 μM and 10 μM concentrations. The potent compounds with >25% inhibition at 1 μM of TrkA were taken for the full dose response studies. The final DMSO concentration in the assay was […]. For IC50 determination, ⅓^rd serial dilution was made from the 20 mM DMSO stock solution. 2 μl of these were transferred to the test wells containing 20 μl reaction mixture [Total reaction volume 22 μl]. The fluorescence was measured in Perkin Elmer Wallac 1420 Multilabel Counter Victor 3. The IC50 was determined by fitting the dose response data to a sigmoidal curve fitting equation using GraphPad Prism software version 5.

T1 sequence (P04629 33-796): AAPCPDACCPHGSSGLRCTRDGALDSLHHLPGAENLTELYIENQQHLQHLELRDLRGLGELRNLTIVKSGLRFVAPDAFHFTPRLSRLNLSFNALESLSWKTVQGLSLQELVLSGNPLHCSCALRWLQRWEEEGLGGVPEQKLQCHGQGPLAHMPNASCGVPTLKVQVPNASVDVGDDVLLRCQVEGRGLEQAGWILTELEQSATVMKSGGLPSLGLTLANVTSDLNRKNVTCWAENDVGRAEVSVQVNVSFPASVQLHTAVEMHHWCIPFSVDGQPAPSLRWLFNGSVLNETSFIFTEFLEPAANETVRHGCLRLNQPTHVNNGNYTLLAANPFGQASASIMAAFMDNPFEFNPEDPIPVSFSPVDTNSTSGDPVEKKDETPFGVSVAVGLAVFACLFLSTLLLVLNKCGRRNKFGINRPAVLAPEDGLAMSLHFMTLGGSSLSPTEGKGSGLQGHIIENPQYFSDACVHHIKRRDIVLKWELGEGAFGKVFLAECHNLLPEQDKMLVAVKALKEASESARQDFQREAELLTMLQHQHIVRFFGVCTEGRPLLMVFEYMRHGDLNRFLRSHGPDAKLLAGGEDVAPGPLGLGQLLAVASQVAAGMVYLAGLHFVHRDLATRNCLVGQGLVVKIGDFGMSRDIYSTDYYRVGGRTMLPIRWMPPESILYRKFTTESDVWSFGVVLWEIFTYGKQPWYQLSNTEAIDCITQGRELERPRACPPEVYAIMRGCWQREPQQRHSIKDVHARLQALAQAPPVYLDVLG

| IC50 [µM] | Compound |
| --- | --- |
| 0.1 to 0.5 | O=C(NS(=O)(=O)c1ccc(-n2cncn2)nc1)c1cnn2ccc(N3CCC[C@@H]3c3cc(F)cc(F)c3)cc12 [Example 72, (R)-N-((6-(1H-1,2,4-triazol-1-yl)pyridin-3-yl)sulfonyl)-5-(2-(3,5-difluorophenyl)pyrrolidin-1-yl)pyrazolo[1,5-a]pyridine-3-carboxamide] |
| 0.1 to 0.5 | O=C(NS(=O)(=O)c1ccc(N2CCOCC2)cc1)c1cnn2ccc(N3CCC[C@@H]3c3cc(F)ccc3F)cc12 [Example 29, (R)-5-(2-(2,5-difluorophenyl)pyrrolidin-1-yl)-N-((4-morpholinophenyl)sulfonyl) pyrazolo[1,5-a]pyridine-3-carboxamide] |
| 0.1 to 0.5 | Cc1nc(C)c(S(=O)(=O)NC(=O)c2cnn3ccc(N4CCC[C@@H]4c4cc(F)ccc4F)cc23)s1 [Example 20, (R)-5-(2-(2,5-difluorophenyl)pyrrolidin-1-yl)-N-((2,4-dimethylthiazol-5-yl)sulfonyl) pyrazolo[1,5-a]pyridine-3-carboxamide] |
| 0.1 to 0.5 | CC(C)CS(=O)(=O)NC(=O)c1cnn2ccc(N3CCC[C@@H]3c3cc(F)ccc3F)cc12 [Example 14, (R)-5-(2-(2,5-difluorophenyl)pyrrolidin-1-yl)-N-(isobutylsulfonyl)pyrazolo[1,5-a] pyridine-3-carboxamide] |
| 0.1 to 0.5 | CC(C)(C)S(=O)(=O)NC(=O)c1cnn2ccc(N3CC(F)(F)CC3c3cc(F)ccc3F)cc12 (stereo not shown) [Example 133, Sodium (tert-butylsulfonyl)(5-(2-(2,5-difluorophenyl)-4,4-difluoropyrrolidin-1-yl)pyrazolo[1,5-a]pyridine-3-carbonyl)amide] |
| 0.1 to 0.5 | O=C(NS(=O)(=O)C1CCOCC1)c1cnn2ccc(N3CCC[C@@H]3c3cc(F)ccc3F)cc12 [Example 22, (R)-5-(2-(2,5-difluorophenyl)pyrrolidin-1-yl)-N-((tetrahydro-2H-pyran-4-yl)sulfonyl) pyrazolo[1,5-a]pyridine-3-carboxamide] |
| 0.1 to 0.5 | O=C(NS(=O)(=O)c1cc(Cl)sc1Cl)c1cnn2ccc(N3CCC[C@@H]3c3cc(F)ccc3F)cc12 [Example 32, (R)-N-((2,5-dichlorothiophen-3-yl)sulfonyl)-5-(2-(2,5-difluorophenyl)pyrrolidin-1-yl) pyrazolo[1,5-a]pyridine-3-carboxamide] |
| 0.1 to 0.5 | CC(C)(C)S(=O)(=O)NC(=O)c1cnn2ccc(N3CCC[C@@H]3c3cc(F)cc(F)c3)cc12 [Example 66, (R)-N-(tert-butylsulfonyl)-5-(2-(3,5-difluorophenyl)pyrrolidin-1-yl)pyrazolo[1,5-a]pyridine-3-carboxamide] |
| 0.1 to 0.5 | O=C(NS(=O)(=O)C1CCC1)c1cnn2ccc(N3CCC[C@@H]3c3cc(F)ccc3F)cc12 [Example 33, (R)-N-(cyclobutylsulfonyl)-5-(2-(2,5-difluorophenyl)pyrrolidin-1-yl)pyrazolo[1,5-a]pyridine-3-carboxamide] |
| 0.1 to 0.5 | O=C(NS(=O)(=O)C1CCCCC1)c1cnn2ccc(N3CCC[C@@H]3c3cc(F)ccc3F)cc12 [Example 12, (R)-N-(cyclohexylsulfonyl)-5-(2-(2,5-difluorophenyl)pyrrolidin-1-yl)pyrazolo[1,5-a] pyridine-3-carboxamide] |
| 0.1 to 0.5 | CN(C)c1ccc(S(=O)(=O)NC(=O)c2cnn3ccc(N4CCC[C@@H]4c4cc(F)ccc4F)cc23)cn1 [Example 23, (R)-5-(2-(2,5-difluorophenyl)pyrrolidin-1-yl)-N-((6-(dimethylamino)pyridin-3-yl)sulfonyl)pyrazolo[1,5-a] pyridine-3-carboxamide] |

Same assay, conditions: 5 ng TrkA, 500 μM ATP, lower bound in nm [sic], upper bound in μM, read-out: TrkA inhibitory activity in-vitro IC50

| IC50 [µM] | Compound |
| --- | --- |
| 0.5 to 1 | CN1C(=O)Cc2cc(S(=O)(=O)NC(=O)c3cnn4ccc(N5CCC[C@@H]5c5cc(F)ccc5F)cc34)ccc21 [Example 21, (R)-5-(2-(2,5-difluorophenyl)pyrrolidin-1-yl)-N-((1-methyl-2-oxoindolin-5-yl)sulfonyl) pyrazolo[1,5-a]pyridine-3-carboxamide] |
| 0.5 to 1 | CC(C)(C)S(=O)(=O)NC(=O)c1cnn2ccc(N3C[C@H](O)C[C@@H]3c3cc(F)ccc3F)cc12 [Example 48, N-(tert-butylsulfonyl)-5-((2R,4R)-2-(2,5-difluorophenyl)-4-hydroxypyrrolidin-1-yl)pyrazolol[1,5-a]pyridine-3-carboxamide] |

Same assay, conditions: 5 ng TrkA, 500 μM ATP, read-out: TrkA inhibition in-vitro IC50

| IC50 [µM] | Compound |
| --- | --- |
| ≤ 0.05 | CC(C)(C)S(=O)(=O)NC(=O)c1cnn2ccc(N3C[C@@H](F)C[C@@H]3c3cccc(F)c3)c(F)c12 [Example 137, Sodium (tert-butylsulfonyl)(4-fluoro-5-((2R,4S)-4-fluoro-2-(3-fluorophenyl)pyrrolidin-1-yl)pyrazolo[1,5-a]pyridine-3-carbonyl)amide] |
| ≤ 0.05 | O=C(NS(=O)(=O)C1(Cc2ccc(F)cc2)CC1)c1cnn2ccc(N3CCC[C@@H]3c3cc(F)ccc3F)cc12 [Example 41, (R)-5-(2-(2,5-difluorophenyl)pyrrolidin-1-yl)-N-((1-(4-fluorobenzyl)cyclopropyl)sulfonyl) pyrazolo[1,5-a]pyridine-3-carboxamide] |
| ≤ 0.05 | Cc1ccccc1S(=O)(=O)NC(=O)c1cnn2ccc(N3CCC[C@@H]3c3cc(F)ccc3F)cc12 [Example 140, Sodium (R)-(5-(2-(2,5-difluorophenyl)pyrrolidin-1-yl)pyrazolo[1,5-a]pyridine-3-carbonyl)(o-tolylsulfonyl)amide] |
| ≤ 0.05 | O=C(NS(=O)(=O)N1CCCCC1)c1cnn2ccc(N3CCC[C@@H]3c3cc(F)ccc3F)cc12 [Example 89, (R)-5-(2-(2,5-difluorophenyl)pyrrolidin-1-yl)-N-(piperidin-1-ylsulfonyl)pyrazolo[1,5-a] pyridine-3-carboxamide] |
| 0.05 to 0.1 | O=C(NS(=O)(=O)c1ccc2c(c1)OCCO2)c1cnn2ccc(N3CCC[C@@H]3c3cc(F)ccc3F)cc12 [Example 34, (R)-5-(2-(2,5-difluorophenyl)pyrrolidin-1-yl)-N-((2,3-dihydrobenzo[b][1,4]dioxin-6-yl)sulfonyl)pyrazolo [1,5-a]pyridine-3-carboxamide] |
| ≤ 0.05 | O=C(NS(=O)(=O)c1ccc(N2CC[C@H](O)C2)cc1)c1cnn2ccc(N3CCC[C@@H]3c3cc(F)ccc3F)cc12 [Example 8, 5-((R)-2-(2,5-difluorophenyl)pyrrolidin-1-yl)-N-((4-((S)-3-hydroxypyrrolidin-1-yl)phenyl)sulfonyl)pyrazolo[1,5-a] pyridine-3-carboxamide] |
| ≤ 0.05 | CC(C)(C)S(=O)(=O)NC(=O)c1cnn2ccc(N3C[C@@H](F)C[C@@H]3c3cc(F)ccc3F)cc12 [Example 128, Sodium (tert-butylsulfonyl)(5-((2R,4S)-2-(2,5-difluorophenyl)-4-fluoropyrrolidin-1-yl)pyrazolo[1,5-a]pyridine-3-carbonyl)amide] |
| ≤ 0.05 | CCN(CC)S(=O)(=O)NC(=O)c1cnn2ccc(N3CCC[C@@H]3c3cc(F)ccc3F)cc12 [Example 81, (R)-N-(N,N-diethylsulfamoyl)-5-(2-(2,5-difluorophenyl)pyrrolidin-1-yl)pyrazolo[1,5-a]pyridine-3-carboxamide] |
| ≤ 0.05 | CN(CC1CC1)S(=O)(=O)NC(=O)c1cnn2ccc(N3CCC[C@@H]3c3cc(F)ccc3F)cc12 [Example 80, (R)-N-(N-(cyclopropylmethyl)-N-methylsulfamoyl)-5-(2-(2,5-difluorophenyl)pyrrolidin-1-yl)pyrazolo[1,5-a]pyridine-3-carboxamide] |
| ≤ 0.05 | CC(C)S(=O)(=O)NC(=O)c1cnn2ccc(N3CCC[C@@H]3c3cc(F)ccc3F)cc12 [Example 7, (R)-5-(2-(2,5-difluorophenyl)pyrrolidin-1-yl)-N-(isopropylsulfonyl)pyrazolo[1,5-a] pyridine-3-carboxamide] |
| ≤ 0.05 | O=C(NS(=O)(=O)c1ccc(N2CC[C@H](O)C2)cc1)c1cnn2ccc(N3CCC[C@@H]3c3cc(F)cc(F)c3)cc12 [Example 70, 5-((R)-2-(3,5-difluorophenyl)pyrrolidin-1-yl)-N-((4-((S)-3-hydroxypyrrolidin-1-yl)phenyl)sulfonyl)pyrazolo[1,5-a] pyridine-3-carboxamide] |
| ≤ 0.05 | CCN(C)S(=O)(=O)NC(=O)c1cnn2ccc(N3CCC[C@@H]3c3cc(F)cc(F)c3OC)cc12 [Example 90, (R)-5-(2-(3,5-difluoro-2-methoxyphenyl)pyrrolidin-1-yl)-N-(N-ethyl-N-methylsulfamoyl) pyrazolo[1,5-a]pyridine-3-carboxamide] |

Same assay, conditions: 5 ng TrkA, 500 μM ATP, read-out: TrkA inhibitory activity in-vitro IC50

| IC50 [µM] | Compound |
| --- | --- |
| 1 to 10 | Cc1ncc(S(=O)(=O)NC(=O)c2cnn3ccc(N4CCC[C@@H]4c4cc(F)ccc4F)cc23)n1C [Example 16, (R)-5-(2-(2,5-difluorophenyl)pyrrolidin-1-yl)-N-((1,2-dimethyl-1H-imidazol-5-yl)sulfonyl)pyrazolo[1,5-a] pyridine-3-carboxamide] |
| 1 to 10 | CC(C)(C)S(=O)(=O)NC(=O)c1cnn2ccc(N3C[C@@H](F)CC3c3cc(F)ccc3F)cc12 (single isomer, unassigned) [Example 53] |
| 1 to 10 | CC(C)(C)S(=O)(=O)NC(=O)c1cnn2ccc(N3CC(F)C[C@@H]3c3cc(F)ccc3F)cc12 (stereo partly drawn) [Example 135, Sodium (tert-butylsulfonyl)(5-((2R)-2-(2,5-difluorophenyl)-4-fluoropyrrolidin-1-yl)pyrazolo[1,5-a]pyridine-3-carbonyl)amide] |
